Experimental data published in patent publication US20160207951A1, “ORGANOMETALLIC COMPOUNDS FOR USE AS ANTHELMINTICS” (UNIVERSITÄT ZÜRICH, priority 2013, published 2016).
Read-outs that look alike come from different tables or passages of the source.

Experiments:
Dirofilaria immitis = test: activity in vitro against Dirofilaria immitis microfilariae (motility); parameters: dose or concentration left out as unconfirmed
[1] = tested on: Trichostrongylus colubriformis; test: activity in vitro against Trichostrongylus colubriformis (egg hatch and larval development); parameters: dose or concentration left out as unconfirmed
Haemonchus contortus = test: activity in vitro against Haemonchus contortus (egg hatch and larval development)
[2] = tested on: human cervical cancer HeLa; test: fluorometric cell viability assay (Resazurin) in HeLa; settings: read-out: IC50 in HeLa
Description: (§1) Human cervical carcinoma cells (HeLa) were cultured in DMEM (Gibco) supplemented with 5% fetal calf serum (FCS, Gibco), 100 U/ml penicillin, 100 μg/ml streptomycin at 37° C. and 5% CO2. The normal human fetal lung fibroblast MRC-5 cell line was maintained in F-10 medium (Gibco) supplemented with 10% FCS (Gibco), 200 mmol/l L-Glutamine, 100 U/ml penicillin, and 100 μg/ml streptomycin at 37° C. and 5% CO2. To establish the anticancer potential of the compounds they were tested in one cell line, namely HeLa by a fluorometric cell viability assay using Resazurin (Promocell GmbH). […] 1 day before treatment, cells were plated in triplicates in 96-well plates at a density of 4×10^3 cells/well in 100 μl for HeLa and 7×10^3 cells/well for MRC-5 cells. Cells were treated with increasing concentrations of the compounds for 2 days. After 2 days, medium and drug were removed and 100 ml fresh medium containing Resazurin (0.2 mg/ml final concentration) were added. After 4 h of incubation at 37′C, the highly red fluorescent dye resorufin's fluorescence was quantified at 590 nm emission with 540 nm excitation wavelength in the SpectraMax M5 microplate Reader.

C. elegans = C. elegans movement inhibition assay
Description: Asynchronous N2 C. elegans worms (Bristol) were maintained on nematode growth medium (NGM) agar, seeded with a lawn on OP50 E. coli as a food-source, according to standard protocol (Maintenance of C. elegans; Stiernagle, T., Ed.; WormBook, 2006.). Worms were harvested from NGM plates by washing with M9 buffer (42 mmol/l Na2HPO4, 22 mmol/l KH2PO4, 86 mmol/l NaCl and 1 mmol/MgSO4), aspiration and collection in a 10 mL tube (Falcon). The average number of worms in 5 μL of this suspension was calculated by transferring 4×5 μL aliquots to a glass slide (Menzel Glaser), and worms were enumerated under a compound microscope (Olympus CH30). To adjust the suspension to contain 1 worm per μL, M9 buffer was either added or removed after pelleting worms at 600×g for 30 sec.
A volume of 70 μL of M9 buffer was added to each well in a 96-well plate, using a multichannel pipettor. A volume of 20 μL of worm suspension was added to each well using a single-channel pipettor, with a trimmed pipette tip (increased aperture to minimize damage to worms). The worm suspension was resuspended by flicking after every three wells to maintain consistency. The compounds were stored at 4° C., and diluted in dimethyl sulfoxide (DMSO) to achieve a 100 mmol/l concentration 1 hr prior to addition to assay. These stock solutions were diluted further in DMSO to create a series of 20 mmol/l, 2 mmol/l, 0.02 mmol/l and 0.002 mmol/l which were subsequently diluted 1:20 in M9 buffer to create 1 mmol/l, 0.1 mmol/l, 1 μmol/l and 0.1 μmol/l (all 5% (v/v) DMSO). […] A Zolvix (monepantel) dilution series was simultaneously created following the same dilution schema, and used as a positive control; 10 μL of 10% DMSO was added to achieve 1% DMSO vehicle control. 10 μL M9 was added to negative control wells (see FIG. 1). Plates were incubated at room temperature (22-24° C.) overnight at 20° C.
Immobile worms were counted as a percentage of total worms in each well using an Olympus SZ30 dissecting microscope. The immobile fraction was subtracted from the total, and this remainder was divided by the total to give a percentage of live worms per well.

H. contortus = test: larval development assay, number of L3 H. contortus; parameters: species or system Haemonchus contortus
[3] = tested on: human lung fibroblasts MRC-5; test: fluorometric cell viability assay (Resazurin) in MRC-5; settings: read-out: IC50 in MRC-5
Description: as §1

[4] = HeLa cells, treated for 2 days, Resazurin
[5] = MRC-5 cells, treated for 2 days, Resazurin

In the case of “Trifluoromethylthioferrocene [Compound 38]”, the “Activity against Dirofilaria immitis at 10 [mg/mL]” value (Dirofilaria immitis) is reported as 31%, the “Activity against Trychostrongylus colubriformis at 10 [mg/mL]” value [1] is reported as 0% and the “Activity against Haemontus Contortus at 10 [mg/mL]” value (Haemonchus contortus) is reported as 0%.
“2-(hydroxymethyl)ferrocenylmethylamine [Compound 30]” was tested, and the “Activity against Dirofilaria immitis at 10 [mg/mL]” value (Dirofilaria immitis) was 0%, the “Activity against Trychostrongylus colubriformis at 10 [mg/mL]” value [1] was 11% and the “Activity against Haemontus Contortus at 10 [mg/mL]” value (Haemonchus contortus) was 24%.
I[c-]1cccc1.N#CS[c-]1cccc1.[Ru+2] [Compound 40, 1,1′-Thiocyanatoiodruthenocene] was tested, and the “Activity against Dirofilaria immitis at 10 [mg/mL]” value (Dirofilaria immitis) was 98% and the “Activity against Trychostrongylus colubriformis at 10 [mg/mL]” value [1] was 55%.
With O=C(NCC#CCO)c1ccc(SC(F)(F)F)cc1 [Compound 14, N-(4-hydroxybut-2-yn-1-yl)-4-((trifluoromethyl)thio)benzamide] the “Activity against Dirofilaria immitis at 10 [mg/mL]” value (Dirofilaria immitis) was 46%, the “Activity against Trychostrongylus colubriformis at 10 [mg/mL]” value [1] was 51% and the IC50 ([2]; Homo sapiens, HeLa, 48 h) was greater than 100 µM. For the same compound, the “Activity against Haemontus Contortus at 10 [mg/mL]” value (Haemonchus contortus) was 32%.
O=[C]=[Co]12(=[C]=O)(=[C]=O)[CH]3[C]1(CNC(=O)c1ccc(SC(F)(F)F)cc1)[Co]32(=[C]=O)(=[C]=O)=[C]=O (centres unmarked) [Compound 4] was tested, and the “Activity against Dirofilaria immitis at 10 [mg/mL]” value (Dirofilaria immitis) was 68%, the “Activity against Trychostrongylus colubriformis at 10 [mg/mL]” value [1] was 44% and the “Mobility in C. elegans at 50 μM” value (C. elegans) was 2%. For the same compound, the “Number of L3 H. contortus/100 μM” value (H. contortus) was 76.7.
CN(C)Cc1ccc[c-]1C=O.[Fe+2].c1cc[cH-]c1 (centres unmarked) [Compound 27, 2-(N,N-dimethylaminomethylferrocene)carboxaldehyde] was tested, and the “Activity against Dirofilaria immitis at 10 [mg/mL]” value (Dirofilaria immitis) was 18%, the “Activity against Trychostrongylus colubriformis at 10 [mg/mL]” value [1] was 44% and the “Activity against Haemontus Contortus at 10 [mg/mL]” value (Haemonchus contortus) was 39%.
In the case of N#Cc1ccc(C(F)(F)F)c(OC[C]23[C]4(CNC(=O)c5ccc(SC(F)(F)F)cc5)[Co]2(=[C]=O)(=[C]=O)(=[C]=O)[Co]43(=[C]=O)(=[C]=O)=[C]=O)c1 (centres unmarked) [Compound 7, Dicobalthexacarbonyl-N-(4-(5-cyano-2-(trifluoromethyl)phenoxy)but-2-en-1-yl)-4-((trifluoromethyl)thio)benzamide], the “Activity against Dirofilaria immitis at 10 [mg/mL]” value (Dirofilaria immitis) is reported as 100%, the “Activity against Trychostrongylus colubriformis at 10 [mg/mL]” value [1] is reported as 25% and the IC50 [2, 4] is reported as 26.8 µM. For the same compound, the “Activity against Haemontus Contortus at 10 [mg/mL]” value (Haemonchus contortus) was 63%.
Thiocyanatoruthenocene [Compound 39] was tested, and the “Activity against Dirofilaria immitis at 10 [mg/mL]” value (Dirofilaria immitis) was 66%, the “Activity against Trychostrongylus colubriformis at 10 [mg/mL]” value [1] was 0% and the “Activity against Haemontus Contortus at 10 [mg/mL]” value (Haemonchus contortus) was 0%.
N#Cc1ccc(C(F)(F)F)c(OCC#CCNC(=O)c2ccc(SC(F)(F)F)cc2)c1 [Compound 13, N-(4-(5-cyano-2-(trifluoromethyl)phenoxy)but-2-yn-1-yl)-4-((trifluoromethyl)thio)benzamide] was tested, and the “Activity against Dirofilaria immitis at 10 [mg/mL]” value (Dirofilaria immitis) was 19%, the “Activity against Trychostrongylus colubriformis at 10 [mg/mL]” value [1] was 49% and the IC50 ([3]; Homo sapiens, MRC5, 48 h) was 96.4 µM. The IC50 ([2]; Homo sapiens, HeLa, 48 h) was 30.6 µM and the “Activity against Haemontus Contortus at 10 [mg/mL]” value (Haemonchus contortus) was 52%.
With “2-(hydroxymethyl)ferrocenecarboxaldehydeoxime [Compound 29]” the “Activity against Dirofilaria immitis at 10 [mg/mL]” value (Dirofilaria immitis) was 12%, the “Activity against Trychostrongylus colubriformis at 10 [mg/mL]” value [1] was 49% and the “Activity against Haemontus Contortus at 10 [mg/mL]” value (Haemonchus contortus) was 47%.
C#CCNC(=O)c1ccc(SC(F)(F)F)cc1 [Compound 15] was tested, and the “Activity against Dirofilaria immitis at 10 [mg/mL]” value (Dirofilaria immitis) was 28%, the “Activity against Trychostrongylus colubriformis at 10 [mg/mL]” value [1] was 51% and the “Mobility in C. elegans at 50 μM” value (C. elegans) was 3%. The “Number of L3 H. contortus/100 μM” value (H. contortus) was greater than 100 and the “Activity against Haemontus Contortus at 10 [mg/mL]” value (Haemonchus contortus) was 51%.
In the case of N#Cc1ccc(C(F)(F)F)c(OCc2ccc[c-]2CNC(=O)c2ccc(SC(F)(F)F)cc2)c1.[Fe+2].c1cc[cH-]c1 (centres unmarked) [Compound 6, N-(2-((5-cyano-2-(trifluormethyl)phenoxy)methyl)ferrocenyl)-4-((trifluoromethyl)thio)benzamide], the “Activity against Trychostrongylus colubriformis at 10 [mg/mL]” value [1] is reported as 31%, the “Mobility in C. elegans at 50 μM” value (C. elegans) is reported as 1% and the IC50 [3, 5] is reported as 26.7 µM. The “Number of L3 H. contortus/100 μM” value (H. contortus) was greater than 100, the IC50 [2, 4] was 27.2 µM and the “Activity against Haemontus Contortus at 10 [mg/mL]” value (Haemonchus contortus) was 20%.
With CC(=O)OCc1ccc[c-]1C=O.[Ru+2].c1cc[cH-]c1 (centres unmarked) [Compound 36, 2-(Acetoxymethylruthenocene)carboxaldehyde] the “Activity against Dirofilaria immitis at 10 [mg/mL]” value (Dirofilaria immitis) was 11%, the “Activity against Trychostrongylus colubriformis at 10 [mg/mL]” value [1] was 54% and the “Activity against Haemontus Contortus at 10 [mg/mL]” value (Haemonchus contortus) was 52%.
O=C(NC[c-]1cccc1CO)c1ccc(SC(F)(F)F)cc1.[Fe+2].c1cc[cH-]c1 (centres unmarked) [Compound 3] was tested, and the “Activity against Dirofilaria immitis at 10 [mg/mL]” value (Dirofilaria immitis) was 0%, the “Activity against Trychostrongylus colubriformis at 10 [mg/mL]” value [1] was 13% and the “Mobility in C. elegans at 50 μM” value (C. elegans) was 4%. The IC50 [3, 5] was 44.6 µM, the “Number of L3 H. contortus/100 μM” value (H. contortus) was greater than 100 and the IC50 [2, 4] was 20 µM. The “Activity against Haemontus Contortus at 10 [mg/mL]” value (Haemonchus contortus) was 24%.
O=C[c-]1cccc1CO.[Fe+2].c1cc[cH-]c1 (centres unmarked) [Compound 31, 2-(Hydroxymethylferrocene)carboxaldehyde] was tested, and the “Activity against Trychostrongylus colubriformis at 10 [mg/mL]” value [1] was 37% and the “Activity against Haemontus Contortus at 10 [mg/mL]” value (Haemonchus contortus) was 40%.
For CC(C#N)(CO)NC(=O)[c-]1cccc1.[Fe+2].c1cc[cH-]c1 (centres unmarked) [Compound 10], the “Activity against Trychostrongylus colubriformis at 10 [mg/mL]” value [1] was 57%, the “Mobility in C. elegans at 50 μM” value (C. elegans) was 4% and the “Number of L3 H. contortus/100 μM” value (H. contortus) was greater than 100.
In the case of “2-(Hydroxymethyl)ruthenocenecarboxaldehyde oxime [Compound 32]”, the “Activity against Dirofilaria immitis at 10 [mg/mL]” value (Dirofilaria immitis) is reported as 12%, the “Activity against Trychostrongylus colubriformis at 10 [mg/mL]” value [1] is reported as 33% and the “Activity against Haemontus Contortus at 10 [mg/mL]” value (Haemonchus contortus) is reported as 35%.
CC(=O)OCc1ccc[c-]1C=O.[Fe+2].c1cc[cH-]c1 (centres unmarked) [Compound 28, 2-(acetoxymethylferrocene)carboxaldehyde] was tested, and the “Activity against Dirofilaria immitis at 10 [mg/mL]” value (Dirofilaria immitis) was 15%, the “Activity against Trychostrongylus colubriformis at 10 [mg/mL]” value [1] was 6% and the “Activity against Haemontus Contortus at 10 [mg/mL]” value (Haemonchus contortus) was 14%.
“N-ferrocenyl-4-((trifluoromethyl)thio)benzamide [Compound 2]” was tested, and the “Activity against Dirofilaria immitis at 10 [mg/mL]” value (Dirofilaria immitis) was 69%, the “Activity against Trychostrongylus colubriformis at 10 [mg/mL]” value [1] was 80% and the “Mobility in C. elegans at 50 μM” value (C. elegans) was 0%. The IC50 [3, 5] was 42 µM, the “Number of L3 H. contortus/100 μM” value (H. contortus) was greater than 100 and the IC50 [2, 4] was 17.6 µM.
“N-(2-cyano-1-hydroxypropan-2-yl)ruthenoceneamide [Compound 41]” was tested, and the “Activity against Trychostrongylus colubriformis at 10 [mg/mL]” value [1] was 0% and the “Activity against Haemontus Contortus at 10 [mg/mL]” value (Haemonchus contortus) was 0%.
In the case of O=[C]=[Co]12(=[C]=O)(=[C]=O)[C]3(CO)[C]1(CNC(=O)c1ccc(SC(F)(F)F)cc1)[Co]32(=[C]=O)(=[C]=O)=[C]=O (centres unmarked) [Compound 5], the “Activity against Dirofilaria immitis at 10 [mg/mL]” value (Dirofilaria immitis) is reported as 45%, the “Activity against Trychostrongylus colubriformis at 10 [mg/mL]” value [1] is reported as 77% and the “Activity against Haemontus Contortus at 10 [mg/mL]” value (Haemonchus contortus) is reported as 64%.
